Experimental data as given in PubChem BioAssay AID256 (DTP/NCI, 2004).
Where “and” joins values, the source holds several entries; their conditions need not be identical. Equal values may be shown once. Toxic doses and inconclusive results are not listed. Rule for the calls: active = survival T/C of 150% or more; inactive = T/C below 125% in these data.

Tested on: CD2F1 mice, L1210 leukemia ip, survival T/C
Experiment: NCI In Vivo Anticancer Drug Screen. Data for tumor model L1210 Leukemia (intraperitoneal) in CD2F1 (CDF1) mice
Details: higher = longer survival
How it was run: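 Compound-dosed mice with transplantable tumor versus matched vehicle controls; endpoint ratio T/C reported.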

[1] = endpoint: mean survival time, dose: 100.0 mg/kg/injection, schedule: Q04DX003 (ip), vehicle: saline
[2] = endpoint: mean survival time, dose: 200.0 mg/kg/injection, schedule: Q04DX003 (ip), vehicle: saline
[3] = endpoint: mean survival time, dose: 400.0 mg/kg/injection, schedule: Q04DX003 (ip), vehicle: saline
[4] = endpoint: mean survival time, dose: 100.0 mg/kg/injection, schedule: Q01DX001 (ip), vehicle: saline
[5] = endpoint: mean survival time, dose: 200.0 mg/kg/injection, schedule: Q01DX001 (ip), vehicle: saline
[6] = endpoint: mean survival time, dose: 400.0 mg/kg/injection, schedule: Q01DX001 (ip), vehicle: saline
[7] = endpoint: mean survival time, dose: 100.0 mg/kg/injection, schedule: Q01DX001 (ip), vehicle: saline with Tween-80
[8] = endpoint: mean survival time, dose: 200.0 mg/kg/injection, schedule: Q01DX001 (ip), vehicle: saline with Tween-80
[9] = endpoint: mean survival time, dose: 400.0 mg/kg/injection, schedule: Q01DX001 (ip), vehicle: saline with Tween-80
[10] = endpoint: mean survival time, dose: 50.0 mg/kg/injection, schedule: Q01DX009 (ip), vehicle: saline with Tween-80
[11] = endpoint: mean survival time, dose: 100.0 mg/kg/injection, schedule: Q01DX009 (ip), vehicle: saline with Tween-80
[12] = endpoint: mean survival time, dose: 100.0 mg/kg/injection, schedule: Q04DX002 (ip), vehicle: saline with Tween-80
[13] = endpoint: mean survival time, dose: 200.0 mg/kg/injection, schedule: Q04DX002 (ip), vehicle: saline with Tween-80
[14] = endpoint: mean survival time, dose: 12.5 mg/kg/injection, schedule: Q01DX005 (ip), vehicle: water
[15] = endpoint: mean survival time, dose: 25.0 mg/kg/injection, schedule: Q01DX005 (ip), vehicle: water
[16] = endpoint: mean survival time, dose: 50.0 mg/kg/injection, schedule: Q01DX005 (ip), vehicle: water
[17] = endpoint: mean survival time, dose: 100.0 mg/kg/injection, schedule: Q04DX003 (ip), vehicle: saline with Tween-80
[18] = endpoint: mean survival time, dose: 200.0 mg/kg/injection, schedule: Q04DX003 (ip), vehicle: saline with Tween-80
[19] = endpoint: mean survival time, dose: 400.0 mg/kg/injection, schedule: Q04DX003 (ip), vehicle: saline with Tween-80
[20] = endpoint: mean survival time, dose: 400.0 mg/kg/injection, schedule: Q01DX009 (ip), vehicle: saline with Tween-80
[21] = endpoint: mean survival time, dose: 200.0 mg/kg/injection, schedule: Q01DX009 (ip), vehicle: saline with Tween-80

Measured: T/C

CCOC(=O)c1nc(N)c2c(CC#N)nn(-c3ccccc3)c2n1
inactive: endpoint: mean survival time, dose: 12.5 mg/kg/injection, schedule: Q01DX005 (ip), vehicle: other 90 % of control | endpoint: mean survival time, dose: 25.0 mg/kg/injection, schedule: Q01DX005 (ip), vehicle: other 93 % of control | endpoint: mean survival time, dose: 50.0 mg/kg/injection, schedule: Q01DX005 (ip), vehicle: other 93 % of control | endpoint: mean survival time, dose: 100.0 mg/kg/injection, schedule: Q01DX005 (ip), vehicle: other 87 % of control | endpoint: mean survival time, dose: 200.0 mg/kg/injection, schedule: Q01DX005 (ip), vehicle: other 93 % of control

CCNc1cc(Cl)c(C(=O)O)cc1[N+](=O)[O-]
inactive: [1] 105 % of control | [2] 110 % of control | [3] 115 % of control

O=C(Nc1cccc([N+](=O)[O-])c1)N(c1ccccc1)c1ccccc1
inactive: [4] 88 % of control | [5] 94 % of control | [6] 93 % of control

CC1CCC2(CC1=O)C(C)CC(=O)C2C(C)C (configuration not stated)
inactive: [1] 95 % of control | [2] 98 % of control | [3] 98 % of control

CCCOC(=O)C(C(=O)OCCC)(C(=O)OCCC)C(=O)OCCC
inactive: [4] 96 % of control | [5] 107 % of control | [6] 93 % of control

CCCCCCCCCC(=O)NCC[N+](C)(CC)CC
inactive: endpoint: mean survival time, dose: 5.0 mg/kg/injection, schedule: Q01DX001 (ip), vehicle: saline 102 % of control | endpoint: mean survival time, dose: 10.0 mg/kg/injection, schedule: Q01DX001 (ip), vehicle: saline 107 % of control | endpoint: mean survival time, dose: 20.0 mg/kg/injection, schedule: Q01DX001 (ip), vehicle: saline 100 % of control | endpoint: mean survival time, dose: 40.0 mg/kg/injection, schedule: Q01DX001 (ip), vehicle: saline 105 % of control

Cc1ccc(S(=O)(=O)N(CCCc2c(C)nc(N)[nH]c2=O)Cc2cccc([N+](=O)[O-])c2)cc1
inactive: [7] 92 % of control | [8] 96 % of control | [9] 92 % of control

[Cl][Pt+2][Cl].[NH-]c1ccccc1C(F)(F)F.[NH-]c1ccccc1C(F)(F)F
inactive: endpoint: mean survival time, dose: 12.5 mg/kg/injection, schedule: Q04DX003 (ip), vehicle: distilled water + Tween-80 97 % of control | endpoint: mean survival time, dose: 25.0 mg/kg/injection, schedule: Q04DX003 (ip), vehicle: distilled water + Tween-80 97 % of control | endpoint: mean survival time, dose: 50.0 mg/kg/injection, schedule: Q04DX003 (ip), vehicle: distilled water + Tween-80 106 % of control | endpoint: mean survival time, dose: 100.0 mg/kg/injection, schedule: Q04DX003 (ip), vehicle: distilled water + Tween-80 114 % of control

ClC1CCC[N-]C1.ClC1CCC[N-]C1.[Cl][Pt+2][Cl] (configuration not stated)
inactive: endpoint: mean survival time, dose: 0.78 mg/kg/injection, schedule: Q01DX009 (ip), vehicle: saline 103 % of control | endpoint: mean survival time, dose: 1.56 mg/kg/injection, schedule: Q01DX009 (ip), vehicle: saline 94 % of control | endpoint: mean survival time, dose: 3.13 mg/kg/injection, schedule: Q01DX009 (ip), vehicle: saline 102 % of control | endpoint: mean survival time, dose: 6.25 mg/kg/injection, schedule: Q01DX009 (ip), vehicle: saline 96 % of control | endpoint: mean survival time, dose: 12.5 mg/kg/injection, schedule: Q01DX009 (ip), vehicle: saline 89 % of control | [10] 108 % of control | [11] 95 % of control

CCOC(=O)c1c[nH]c([O-])c1[N+]#N
inactive: [7] 94 % of control | [12] 100 % of control | [8] 96 % of control | [13] 107 % of control | [9] 91 % of control | endpoint: mean survival time, dose: 400.0 mg/kg/injection, schedule: Q04DX002 (ip), vehicle: saline with Tween-80 103 % of control

CCOC(=O)Nc1cc(Cl)c2nnn(C(=O)OCC)c2n1
inactive: [14] 105 % of control | [15] 98 % of control | [16] 96 % of control | endpoint: mean survival time, dose: 100.0 mg/kg/injection, schedule: Q01DX005 (ip), vehicle: water 105 % of control

O=c1[nH]c(=O)n2ncc(Br)c2[nH]1
inactive: endpoint: median survival time, dose: 50.0 mg/kg/injection, schedule: Q01DX005 (ip), vehicle: saline 102 % of control | endpoint: median survival time, dose: 100.0 mg/kg/injection, schedule: Q01DX005 (ip), vehicle: saline 102 % of control

CC1CCCC(CN=Cc2ccccc2O)[N-]1.CC1CCCC(CN=Cc2ccccc2O)[N-]1.[Ni+2] (configuration not stated)
inactive: endpoint: mean survival time, dose: 6.25 mg/kg/injection, schedule: Q04DX002 (ip), vehicle: saline with Tween-80 98 % of control | endpoint: mean survival time, dose: 12.5 mg/kg/injection, schedule: Q04DX002 (ip), vehicle: saline with Tween-80 95 % of control | endpoint: mean survival time, dose: 25.0 mg/kg/injection, schedule: Q04DX002 (ip), vehicle: saline with Tween-80 91 % of control and 95 % of control | endpoint: mean survival time, dose: 50.0 mg/kg/injection, schedule: Q04DX002 (ip), vehicle: saline with Tween-80 91 % of control | [12] 97 % of control

COC(=O)C(C)(C)Br
inactive: [17] 97 % of control | [18] 102 % of control | [19] 102 % of control

C[n+]1cccc2cccc(C(=O)O)c21
inactive: endpoint: mean survival time, dose: 37.5 mg/kg/injection, schedule: Q01DX009 (ip), vehicle: saline with Tween-80 112 % of control | endpoint: mean survival time, dose: 75.0 mg/kg/injection, schedule: Q01DX009 (ip), vehicle: saline with Tween-80 109 % of control | endpoint: mean survival time, dose: 150.0 mg/kg/injection, schedule: Q01DX009 (ip), vehicle: saline with Tween-80 107 % of control

CC(=O)OCC1OC(OC(C)=O)C(OC(C)=O)C(OC(C)=O)C1OC(C)=O (configuration not stated)
inactive: [1] 95 % of control | [2] 98 % of control | [3] 97 % of control

CC(C)=NNC(=O)CC(=O)NN=C(C)C
inactive: endpoint: mean survival time, dose: 100.0 mg/kg/injection, schedule: Q01DX009 (ip), vehicle: saline sonified 100 % of control | endpoint: mean survival time, dose: 180.0 mg/kg/injection, schedule: Q01DX009 (ip), vehicle: saline with Tween-80 100 % of control | endpoint: mean survival time, dose: 200.0 mg/kg/injection, schedule: Q01DX009 (ip), vehicle: saline sonified 102 % of control | endpoint: mean survival time, dose: 266.0 mg/kg/injection, schedule: Q01DX009 (ip), vehicle: saline with Tween-80 100 % of control | [20] 110 % of control | endpoint: mean survival time, dose: 600.0 mg/kg/injection, schedule: Q01DX009 (ip), vehicle: saline with Tween-80 122 % of control

Cc1ccc(-n2c(=S)[nH]c3ccccc3c2=O)cc1
inactive: [17] 100 % of control

CCCc1cc(C(C)=O)c[n+](C2OC(COC(C)=O)C(OC(C)=O)C(OC(C)=O)C2OC(C)=O)c1 (configuration not stated)
inactive: endpoint: mean survival time, dose: 3.13 mg/kg/injection, schedule: Q01DX005 (ip), vehicle: water 107 % of control | endpoint: mean survival time, dose: 6.25 mg/kg/injection, schedule: Q01DX005 (ip), vehicle: water 100 % of control | [14] 104 % of control | [15] 109 % of control | [16] 95 % of control

Clc1ccc2nc(C(Cl)(Cl)Cl)nc(NCCN3CCCCC3)c2c1
inactive: [10] 89 % of control | [11] 113 % of control | [21] 97 % of control | [18] 91 % of control

C#CCOCCC(C(C)=O)C(=O)OCC (configuration not stated)
inactive: [4] 104 % of control | [5] 100 % of control

Cc1ccc(NC(=O)c2ccccc2C(=O)O)c(C)c1
inactive: [11] 109 % of control | [17] 95 % of control | [21] 96 % of control | [18] 109 % of control | [20] 115 % of control | [19] 103 % of control

C#CC1(OC(=O)Nc2ccccc2)CCCCC1
inactive: [12] 100 % of control | [13] 92 % of control
